Source: PMC8633983, “GTP binding to translation factor eIF2B stimulates its guanine nucleotide exchange activity” (iScience, 2021)

Target: T1, eIF2Bγ (in eIF2B complex) (Saccharomyces cerevisiae, UniProt P09032)
T1 construct: gene GCD1; purified eIF2B complex; with eIF2Bε (GCD6) and the other eIF2B subunits
Test: competition filter binding against […]-GTP

T1 sequence (P09032 whole entry): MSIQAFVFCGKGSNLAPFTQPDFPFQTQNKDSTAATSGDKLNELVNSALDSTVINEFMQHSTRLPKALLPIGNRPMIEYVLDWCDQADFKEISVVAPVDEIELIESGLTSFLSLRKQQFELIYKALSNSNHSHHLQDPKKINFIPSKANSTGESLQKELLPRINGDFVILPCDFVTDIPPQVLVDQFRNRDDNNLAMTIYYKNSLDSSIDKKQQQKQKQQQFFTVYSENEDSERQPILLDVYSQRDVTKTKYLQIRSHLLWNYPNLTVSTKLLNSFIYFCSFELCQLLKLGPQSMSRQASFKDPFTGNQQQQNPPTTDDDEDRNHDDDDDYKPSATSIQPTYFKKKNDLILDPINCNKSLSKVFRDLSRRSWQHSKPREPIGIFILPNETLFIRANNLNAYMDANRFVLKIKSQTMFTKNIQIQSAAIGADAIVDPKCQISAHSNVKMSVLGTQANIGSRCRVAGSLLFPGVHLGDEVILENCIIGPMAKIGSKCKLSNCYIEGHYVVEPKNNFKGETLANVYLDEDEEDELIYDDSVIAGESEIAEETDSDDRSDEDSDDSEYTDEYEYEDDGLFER
T1 sequence (P32501 whole entry partner): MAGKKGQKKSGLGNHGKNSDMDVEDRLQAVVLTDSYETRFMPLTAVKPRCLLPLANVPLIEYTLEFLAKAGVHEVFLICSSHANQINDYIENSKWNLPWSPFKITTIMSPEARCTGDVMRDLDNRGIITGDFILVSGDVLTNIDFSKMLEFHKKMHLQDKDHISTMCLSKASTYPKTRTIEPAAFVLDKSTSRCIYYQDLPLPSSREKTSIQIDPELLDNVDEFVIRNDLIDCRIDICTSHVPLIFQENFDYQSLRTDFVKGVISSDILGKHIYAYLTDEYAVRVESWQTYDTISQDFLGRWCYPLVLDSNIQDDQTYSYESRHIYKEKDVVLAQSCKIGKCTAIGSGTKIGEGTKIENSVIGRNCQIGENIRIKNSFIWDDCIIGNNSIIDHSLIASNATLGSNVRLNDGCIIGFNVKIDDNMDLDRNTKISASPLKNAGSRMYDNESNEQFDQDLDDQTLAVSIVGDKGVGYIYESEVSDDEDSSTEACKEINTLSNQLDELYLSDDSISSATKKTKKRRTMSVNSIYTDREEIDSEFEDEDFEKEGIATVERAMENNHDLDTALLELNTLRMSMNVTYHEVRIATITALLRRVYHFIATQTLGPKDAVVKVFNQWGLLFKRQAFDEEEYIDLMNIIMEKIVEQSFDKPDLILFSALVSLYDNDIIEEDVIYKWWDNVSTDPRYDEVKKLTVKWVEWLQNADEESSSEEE
T1 sequence (P14741 2-305 partner): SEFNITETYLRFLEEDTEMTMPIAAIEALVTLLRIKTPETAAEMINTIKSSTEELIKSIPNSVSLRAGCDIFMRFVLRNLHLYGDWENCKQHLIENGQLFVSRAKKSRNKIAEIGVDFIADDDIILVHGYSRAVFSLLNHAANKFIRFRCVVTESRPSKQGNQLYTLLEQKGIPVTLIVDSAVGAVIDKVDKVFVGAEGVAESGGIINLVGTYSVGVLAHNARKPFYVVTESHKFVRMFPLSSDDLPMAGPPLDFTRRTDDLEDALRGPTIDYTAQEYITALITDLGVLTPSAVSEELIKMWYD
T1 sequence (P32502 whole entry partner): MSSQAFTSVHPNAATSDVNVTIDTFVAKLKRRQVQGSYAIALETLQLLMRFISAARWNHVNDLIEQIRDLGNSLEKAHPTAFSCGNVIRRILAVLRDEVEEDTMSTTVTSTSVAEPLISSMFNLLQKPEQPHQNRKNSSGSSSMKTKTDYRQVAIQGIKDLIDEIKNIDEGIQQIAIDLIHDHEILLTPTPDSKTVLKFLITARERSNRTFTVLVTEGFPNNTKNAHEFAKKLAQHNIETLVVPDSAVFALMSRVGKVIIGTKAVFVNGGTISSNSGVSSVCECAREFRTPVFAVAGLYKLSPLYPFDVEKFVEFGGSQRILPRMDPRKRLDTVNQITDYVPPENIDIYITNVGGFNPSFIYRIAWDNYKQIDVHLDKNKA
T1 sequence (P12754 2-651 partner): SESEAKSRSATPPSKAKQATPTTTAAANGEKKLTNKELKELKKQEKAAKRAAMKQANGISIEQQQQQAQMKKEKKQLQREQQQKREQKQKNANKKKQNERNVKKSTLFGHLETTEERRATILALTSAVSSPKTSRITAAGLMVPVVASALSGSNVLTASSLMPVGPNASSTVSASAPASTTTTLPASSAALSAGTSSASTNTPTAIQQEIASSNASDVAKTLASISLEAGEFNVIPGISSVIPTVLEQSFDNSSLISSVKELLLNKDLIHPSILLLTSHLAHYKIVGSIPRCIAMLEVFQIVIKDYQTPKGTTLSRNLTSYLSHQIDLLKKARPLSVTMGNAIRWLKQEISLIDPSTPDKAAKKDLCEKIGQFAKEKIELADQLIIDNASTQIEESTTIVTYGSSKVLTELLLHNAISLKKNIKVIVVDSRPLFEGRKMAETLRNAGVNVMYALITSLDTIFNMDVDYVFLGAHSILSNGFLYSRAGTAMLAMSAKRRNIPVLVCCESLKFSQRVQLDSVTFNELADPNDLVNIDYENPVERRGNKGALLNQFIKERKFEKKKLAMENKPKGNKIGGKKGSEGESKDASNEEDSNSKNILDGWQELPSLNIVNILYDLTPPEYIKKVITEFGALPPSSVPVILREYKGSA

| Compound | competition filter binding against 32P-GTP |
| --- | --- |
| Nc1ncnc2c1ncn2[C@@H]1O[C@H](COP(=O)(O)OP(=O)(O)OP(=O)(O)O)[C@@H](O)[C@H]1O [ATP] | suggesting eIF2B can bind both ATP and GTP, but with a preference for GTP |
| Nc1nc2c(ncn2[C@@H]2O[C@H](COP(=O)(O)OP(=O)(O)O)[C@@H](O)[C@H]2O)c(=O)[nH]1 [GDP] | GTP was a more effective competitor than ATP or GDP |
